For 26 molecules, IC50 results are on record in patent US9938265B2, “1,3,4-thiadiazole compounds and their use in treating cancer” (AstraZeneca AB, priority 2015, dated 2018).

The IC50 is the concentration that gives 50% inhibition.

Like-named read-outs stand apart in the source and are kept apart here.

For one test, the target named is GLS1 (Homo sapiens (Human), UniProt O94925). In words: GLS Enzyme Potency Assay (Glutamate Oxidase/AmplexRed coupled assay). The class given is biochemical. From the text: (§1) The following assays were used to measure the effects of the compounds described herein: a) GLS Enzyme Potency Assay; b) GLS Cell Potency Assay; c) GLS Cell Proliferation Assay. During the description of the assays, generally: • i. The following abbreviations have been used: CO2=Carbon dioxide; DMEM=Dulbecco's Modified Eagle Medium; DMSO=Dimethyl sulphoxide; EDTA=Ethylenediaminetetraacetic acid; EGTA=Ethylene glycol tetraacetic acid; FCS=Foetal calf serum; h=Hour(s); NBS=Non-binding surface; SDS=Sodium dodecyl sulphate; TRIS=Tris(Hydroxymethyl)aminomethane. • ii. IC50 values were calculated using a smart fitting model in Genedata.
Sequence of GLS1 (O94925 63-669): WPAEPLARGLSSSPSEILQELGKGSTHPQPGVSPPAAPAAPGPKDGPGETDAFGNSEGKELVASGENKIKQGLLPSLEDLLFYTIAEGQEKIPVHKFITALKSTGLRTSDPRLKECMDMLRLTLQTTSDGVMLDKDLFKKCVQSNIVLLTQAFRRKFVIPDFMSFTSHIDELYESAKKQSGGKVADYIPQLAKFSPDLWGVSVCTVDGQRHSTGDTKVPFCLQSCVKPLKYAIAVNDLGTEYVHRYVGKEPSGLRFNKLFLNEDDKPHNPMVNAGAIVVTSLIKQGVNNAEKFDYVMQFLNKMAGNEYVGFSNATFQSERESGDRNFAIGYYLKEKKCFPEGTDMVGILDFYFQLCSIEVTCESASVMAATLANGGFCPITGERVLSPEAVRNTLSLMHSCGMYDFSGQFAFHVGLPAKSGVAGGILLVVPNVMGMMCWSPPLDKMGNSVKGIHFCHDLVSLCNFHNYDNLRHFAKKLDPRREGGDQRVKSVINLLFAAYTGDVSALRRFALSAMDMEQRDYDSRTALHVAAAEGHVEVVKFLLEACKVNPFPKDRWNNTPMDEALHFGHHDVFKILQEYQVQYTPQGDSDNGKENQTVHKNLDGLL
Assay a): GLS Enzyme Potency Assay
A Glutamate Oxidase/AmplexRed coupled assay was used to measure the ability of compounds to bind to and inhibit the activity of GLS1 in vitro. […] GLS1 was diluted to 2× working concentration and incubated at room temperature to allow the tetrameric/dimeric forms to reach steady state. Assay measurements were performed in buffer comprising 50 mM TRIS pH 7.8, 100 mM NaPO4, pH 7.8, 0.001% v/v Tween20. Purified recombinant GLS1 protein was diluted in assay buffer to 12 nM and pre-incubated at room temperature for 30 minutes. […] DMSO concentration was maintained at 2% by back filling with DMSO solution. 3 μL of diluted GLS1 protein (12 nM) was then dispensed into each well using a BioRaptr automated dispenser (Beckman-Coulter) and incubated for 15 minutes at room temperature. 3 μL of 100 mM glutamine diluted in assay buffer was then added and the reaction incubated at room temperature for 60 minutes. […] An artefact version of the assay where the 6His tagged GLS protein and glutamine were replaced with assay buffer was also used to rule out non specific effects on the assay components.

Another test addresses cellular GLS activity (Homo sapiens (Human), UniProt O94925). In words: GLS Cell Potency Assay (PC3 coupled assay measuring cellular glutamate depletion). The class given is cell-based. Particulars: PC3 cells, 6 h incubation, glutamate depletion; read-out: Assay b) GLS cell MOA Mean IC50.
Source text: as §1
Assay b): GLS Cell Potency Assay
Compounds were assessed for their potential to inhibit cellular GLS activity by use of a PC3 coupled assay measuring cellular glutamate depletion. […] DMSO concentration was maintained at 0.3% by back filling with DMSO solution. PC3 cells were grown in phenol free DMEM, 10% dialyzed FCS, 2 mM glutamine and following dispersal by trypsinisation were plated at 5.6×10^3 cells per well in 40 μl of growth medium directly into the 384 well assay plates containing dispensed compound. After incubation for 6 h at 37° C., 5% CO2 growth media was aspirated and cells lysed in 15 μl of buffer containing 10 mM TRIS pH7.4, 100 mM NaCl, 1 mM EDTA, 1 mM EGTA, 1 mM NaF, 20 mM Na4P2O7, 2 mM Na3VO4, 1% Triton X-100, 10% glycerol, 0.1% SDS and 0.5% deoxycholate.

The next test relates to NCI-H1703 cells. In words: GLS Cell Proliferation Assay (NCI-H1703 cell proliferation). The class given is cell-based.
Source text: as §1
Assay c): GLS Cell Proliferation Assay
The ability of compounds to inhibit cell growth was measured using a 384 well plate NCI-H1703 cell proliferation assay. NCI-H1703 cells were grown in phenol red free RPMI1640, 10% FCS and 2 mM glutamine and seeded at a density of 750 cells per well in 40 μl of growth medium into clear-bottom 384 well assay plates (Corning product code 3712) and incubated for 24 h at 37° C., 5% CO2. Test compounds were prepared by dilution in 100% DMSO to give the correct dose range for 12 point concentration response and an appropriate volume (5-120 nl) dispensed directly into the assay plates containing plated cells. DMSO concentration was maintained at 0.3% by back filling with DMSO solution. Plates were incubated for 5 days at 37° C., 5% CO2, Sytox Green and Saponin added to final concentration of 2 μM and 0.25% respectively and incubated for 6 h prior to analysis. Plates were read on an Acumen eX3 (TTP Labtech) using 488 nm excitation and FITC filter set (500-530 nm) for emission. IC50 values were calculated by curve fitting to max inhibition of day zero growth using GeneData software analysis.

[1] abbreviates: 6His tagged GLS protein (amino acids 63-669), glutamine substrate; read-out: Assay a) enz IC50.
The mark [2] stands for this setting: NCI-H1703 cells, 5 days; read-out: Assay c) Prolif Mean IC50.
The mark [3] stands for this setting: Homo sapiens, NCI-H1703, 120 h, NCI-H1703 cells, 5 days; read-out: Assay c) Prolif Mean IC50.

Sequence of cellular GLS activity (O94925 73-669): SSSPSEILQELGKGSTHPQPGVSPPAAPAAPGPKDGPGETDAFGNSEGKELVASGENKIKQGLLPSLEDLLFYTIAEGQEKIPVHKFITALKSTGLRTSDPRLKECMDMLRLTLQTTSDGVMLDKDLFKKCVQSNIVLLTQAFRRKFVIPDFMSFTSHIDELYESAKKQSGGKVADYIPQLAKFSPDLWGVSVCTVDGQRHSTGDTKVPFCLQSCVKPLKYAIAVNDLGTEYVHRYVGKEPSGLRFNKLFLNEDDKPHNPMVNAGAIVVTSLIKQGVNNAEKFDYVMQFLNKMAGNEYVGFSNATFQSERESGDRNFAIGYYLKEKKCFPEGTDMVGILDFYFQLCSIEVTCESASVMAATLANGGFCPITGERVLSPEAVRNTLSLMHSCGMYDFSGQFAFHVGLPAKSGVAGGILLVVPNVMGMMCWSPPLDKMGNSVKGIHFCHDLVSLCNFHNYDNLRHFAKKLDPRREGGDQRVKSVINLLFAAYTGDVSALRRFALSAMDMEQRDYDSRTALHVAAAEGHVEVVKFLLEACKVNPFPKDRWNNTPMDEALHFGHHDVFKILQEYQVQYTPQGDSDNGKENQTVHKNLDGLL

For `CCOC(C(=O)Nc1nnc(N[C@@H]2CCN(c3ccc(C)nn3)C2)s1)c1ccc(F)cc1` (single isomer, unassigned) [Example 28], the values for the IC50 on GLS1 (setting [1]), at cellular GLS activity and with NCI-H1703 cells (setting [2]) were 96 nM, 3.57 nM and 73.2 nM, respectively.
In the case of `CO[C@@H](C(=O)Nc1nnc(N[C@@H]2CCN(c3ccc(F)nn3)C2)s1)c1cccc(OC(F)F)c1` [9(b), (2R)-2-[3-(difluoromethoxy)phenyl]-N-[5-[[(3R)-1-(6-fluoropyridazin-3-yl)pyrrolidin-3-yl]amino]-1,3,4-thiadiazol-2-yl]-2-methoxy-acetamide], the IC50 in the test with NCI-H1703 cells (setting [3]) was found to be 469 nM.
Consider `COc1cccc([C@H](OC)C(=O)Nc2nnc(N[C@@H]3CCN(c4ccc(C)nn4)C3)s2)c1` (single isomer, unassigned) [Example 1(a)], for which the IC50 on GLS1 (setting [1]) is 55.4 nM; on cellular GLS activity, 0.566 nM; with NCI-H1703 cells (setting [2]), 4.59 nM.
With `COc1cccc([C@H](OC)C(=O)Nc2nnc(N[C@@H]3CCN(c4ccc(C)nn4)C3)s2)c1` (single isomer, unassigned) [Example 1(b)], the figures for the concentration for half-maximal inhibition (IC50) at GLS1 (read-out: Assay a) enz IC50), at cellular GLS activity and in the test with NCI-H1703 cells (setting [2]) were 406 nM, 137 nM and 454 nM, respectively.
As to `CO[C@H](C(=O)Nc1nnc(N[C@@H]2CCN(c3ccc(F)nn3)C2)s1)c1ccccc1` [Example 2, (2S)-N-[5-[[(3R)-1-(6-Fluoropyridazin-3-yl)pyrrolidin-3-yl]amino]-1,3,4-thiadiazol-2-yl]-2-methoxy-2-phenyl-acetamide], the figures for the IC50 at GLS1 (setting [1]), on cellular GLS activity and in the test on NCI-H1703 cells (setting [3]) were 30.3 nM, 0.965 nM and 16.7 nM, respectively.
As to `COc1ccc([C@H](OC)C(=O)Nc2nnc(N[C@@H]3CCN(c4cc(Cl)cnn4)C3)s2)cc1` (single isomer, unassigned) [11(b)], the values for the IC50 at GLS1 (read-out: Assay a) enz IC50), on cellular GLS activity and in the test with NCI-H1703 cells (setting [2]) were 84.8 nM, 10.5 nM and 129 nM, respectively.
Regarding `CCOC(C(=O)Nc1nnc(N[C@@H]2CCN(c3ccc(C)nn3)C2)s1)c1ccc(OC)cc1` (single isomer, unassigned) [Example 15], the half-maximal inhibitory concentration (IC50) stood at 277 nM at GLS1 (setting [1]), 34.8 nM on cellular GLS activity and 567 nM with NCI-H1703 cells (setting [2]).
As for `CO[C@H](C(=O)Nc1nnc(N[C@@H]2CCN(c3cc(Cl)cnn3)C2)s1)c1ccccc1` [Example 12, (2S)-N-[5-[[(3R)-1-(5-Chloropyridazin-3-yl)pyrrolidin-3-yl]amino]-1,3,4-thiadiazol-2-yl]-2-methoxy-2-phenyl-acetamide], the values for the half-maximal inhibitory concentration (IC50) on GLS1 (setting [1]), at cellular GLS activity and in the test with NCI-H1703 cells (setting [3]) were 35.3 nM, 0.451 nM and 3.07 nM, respectively.
Take `CO[C@H](C(=O)Nc1nnc(N[C@@H]2CCN(c3ccc(C)nn3)C2)s1)c1cccc(OC(F)(F)F)c1` (single isomer, unassigned) [Example 7(a)]: the half-inhibitory concentration (IC50) was determined as 95.2 nM at GLS1 (setting [1]), 0.556 nM at cellular GLS activity and 3.08 nM in the test with NCI-H1703 cells (setting [2]).
Taken in the same sequence, the figures for `COC(C(=O)Nc1nnc(N[C@@H]2CCN(c3ccc(F)nn3)C2)s1)c1cccc(OC(F)(F)F)c1` (single isomer, unassigned) [Example 18] were 65.3 nM, 4.91 nM and 16.8 nM.
As for `CO[C@H](C(=O)Nc1nnc(N[C@@H]2CCN(c3ccc(C)nn3)C2)s1)c1cccc(OC(F)(F)F)c1` (single isomer, unassigned) [7(b)], the IC50 at GLS1 (read-out: Assay a) enz IC50) was found to be 334 nM; at cellular GLS activity, 12.7 nM; in the test on NCI-H1703 cells (setting [2]), 25.6 nM.
Turning to `CO[C@H](C(=O)Nc1nnc(N[C@@H]2CCN(c3ccc(C)nn3)C2)s1)c1cccc(OC(F)F)c1` (single isomer, unassigned) [8(a)], the half-maximal inhibitory concentration (IC50) at GLS1 (setting [1]) was found to be 99.4 nM; at cellular GLS activity, 1.3 nM; in the test with NCI-H1703 cells (setting [2]) it was 5.48 nM.
On to `CCOC(C(=O)Nc1nnc(N[C@@H]2CCN(c3ccc(F)nn3)C2)s1)c1ccc(F)cc1` (single isomer, unassigned) [Example 26], for which the concentration for half-maximal inhibition (IC50) on GLS1 (setting [1]) worked out at 94.8 nM; at cellular GLS activity, 2.12 nM; with NCI-H1703 cells (setting [2]), 21.9 nM.
For `CCO[C@H](C(=O)Nc1nnc(N[C@@H]2CCN(c3ccc(C)nn3)C2)s1)c1cccc(OC)c1` (single isomer, unassigned) [4(b)], the values for the concentration for half-maximal inhibition (IC50) on GLS1 (read-out: Assay a) enz IC50), at cellular GLS activity and with NCI-H1703 cells (setting [2]) were 290 nM, 43.1 nM and 389 nM, respectively.
For `COc1ccc([C@H](OC)C(=O)Nc2nnc(N[C@@H]3CCN(c4cc(C)cnn4)C3)s2)cc1` (single isomer, unassigned) [Example 33(a)], the results for the 50% inhibitory concentration (IC50) on GLS1 (setting [1]), on cellular GLS activity and in the test on NCI-H1703 cells (setting [2]) were 148 nM, 19.2 nM and 18.9 nM, respectively.
Taken in the same sequence, the figures for `COc1ccc(C(OC)C(=O)Nc2nnc(N[C@@H]3CCN(c4ccc(F)nn4)C3)s2)cc1` (single isomer, unassigned) [Example 21] were 223 nM, 53.7 nM and 930 nM.
In the case of `COC(C(=O)Nc1nnc(N[C@@H]2CCN(c3ccc(F)nn3)C2)s1)c1ccc(F)cc1` (single isomer, unassigned) [Example 19], the IC50 at GLS1 (setting [1]) is 55.7 nM; at cellular GLS activity it was 4.7 nM; in the test on NCI-H1703 cells (setting [2]) it was 71.9 nM.
Turning to `COc1cc([C@H](OC)C(=O)Nc2nnc(N[C@@H]3CCN(c4ccc(C)nn4)C3)s2)ccc1F` (single isomer, unassigned) [6(b)], in the test with NCI-H1703 cells (setting [2]), the IC50 is 926 nM.
With `COc1cccc([C@H](OC)C(=O)Nc2nnc(N[C@@H]3CCN(c4ccc(F)nn4)C3)s2)c1` [Example 3, (2S)-N-[5-[[(3R)-1-(6-Fluoropyridazin-3-yl)pyrrolidin-3-yl]amino]-1,3,4-thiadiazol-2-yl]-2-methoxy-2-(3-methoxyphenyl)acetamide], in the test on NCI-H1703 cells (setting [3]), the IC50 was determined as 3.62 nM.
As for `CO[C@H](C(=O)Nc1nnc(N[C@@H]2CCN(c3ccc(F)nn3)C2)s1)c1cccc(OC(F)F)c1` [Example 9(a), (2S)-2-[3-(difluoromethoxy)phenyl]-N-[5-[[(3R)-1-(6-fluoropyridazin-3-yl)pyrrolidin-3-yl]amino]-1,3,4-thiadiazol-2-yl]-2-methoxy-acetamide], the half-maximal inhibitory concentration (IC50) in the test on NCI-H1703 cells (setting [3]) turned out to be 3.09 nM.
In the case of `COc1ccc([C@H](OC)C(=O)Nc2nnc(N[C@@H]3CCN(c4cc(Cl)cnn4)C3)s2)cc1` (single isomer, unassigned) [Example 11(a)], the figures for the IC50 at GLS1 (setting [1]) and in the test on NCI-H1703 cells (setting [2]) were 15.9 nM and 54.4 nM, respectively.
On to `COc1ccc(C(OC)C(=O)Nc2nnc(N[C@@H]3CCN(c4ccc(C)nn4)C3)s2)cc1` (stereo partly drawn) [Example 29, 2-methoxy-2-(4-methoxyphenyl)-N-[5-[[(3R)-1-(6-methylpyridazin-3-yl)pyrrolidin-3-yl]amino]-1,3,4-thiadiazol-2-yl]acetamide], for which the values for the 50% inhibitory concentration (IC50) at GLS1 (setting [1]) and in the test with NCI-H1703 cells (setting [2]) were 1280 nM and 586 nM, respectively.
Turning to `CO[C@H](C(=O)Nc1nnc(N[C@@H]2CCN(c3ccc(C)nn3)C2)s1)c1ccc(F)cc1` (single isomer, unassigned) [5(b)], the IC50 on GLS1 (read-out: Assay a) enz IC50) is 975 nM; in the test with NCI-H1703 cells (setting [2]), 1020 nM.
`COc1cc([C@H](OC)C(=O)Nc2nnc(N[C@@H]3CCN(c4ccc(C)nn4)C3)s2)ccc1F` (single isomer, unassigned) [Example 6(a)]: the 50% inhibitory concentration (IC50) with NCI-H1703 cells (setting [2]) turned out to be 20.9 nM.
`CO[C@H](C(=O)Nc1nnc(N[C@@H]2CCN(c3cc(C)cnn3)C2)s1)c1ccc(F)cc1` (single isomer, unassigned) [Example 10(a)]: the IC50 with NCI-H1703 cells (setting [2]) was determined as 1210 nM.
For the molecule `CO[C@H](C(=O)Nc1nnc(N[C@@H]2CCN(c3cc(C)cnn3)C2)s1)c1ccc(F)cc1` (single isomer, unassigned) [10(b)], the IC50 in the test with NCI-H1703 cells (setting [2]) stood at 204 nM.
